Activity calls are given as the source filed them.
Experiments:
Cytochrome P450 1A2 = target: T1, Cytochrome P450 1A2 (Homo sapiens, UniProt P05177);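 also: PubChem cytochrome P450 panel assay, CYP1A2 panel member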
T1 sequence (P05177 whole entry): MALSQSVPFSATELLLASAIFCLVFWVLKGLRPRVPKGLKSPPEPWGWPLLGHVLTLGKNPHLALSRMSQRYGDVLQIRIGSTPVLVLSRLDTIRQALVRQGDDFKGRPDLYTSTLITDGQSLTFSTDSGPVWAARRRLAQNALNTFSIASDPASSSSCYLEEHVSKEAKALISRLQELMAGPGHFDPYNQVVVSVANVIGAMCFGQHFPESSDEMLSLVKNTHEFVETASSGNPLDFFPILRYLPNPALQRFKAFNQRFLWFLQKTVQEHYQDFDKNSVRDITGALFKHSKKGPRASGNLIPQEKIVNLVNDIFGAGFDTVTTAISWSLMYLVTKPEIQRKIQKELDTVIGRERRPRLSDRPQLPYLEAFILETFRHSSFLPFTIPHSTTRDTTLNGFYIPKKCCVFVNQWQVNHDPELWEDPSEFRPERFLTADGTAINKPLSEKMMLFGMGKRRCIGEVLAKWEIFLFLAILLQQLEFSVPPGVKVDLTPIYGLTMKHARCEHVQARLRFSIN

Cytochrome P450 3A4 = Cytochrome P450 3A4 (Homo sapiens, UniProt P08684);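 also: CYP3A4 tested as one member of a cytochrome P450 panel screen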
Sequence of Cytochrome P450 3A4 (P08684 whole entry): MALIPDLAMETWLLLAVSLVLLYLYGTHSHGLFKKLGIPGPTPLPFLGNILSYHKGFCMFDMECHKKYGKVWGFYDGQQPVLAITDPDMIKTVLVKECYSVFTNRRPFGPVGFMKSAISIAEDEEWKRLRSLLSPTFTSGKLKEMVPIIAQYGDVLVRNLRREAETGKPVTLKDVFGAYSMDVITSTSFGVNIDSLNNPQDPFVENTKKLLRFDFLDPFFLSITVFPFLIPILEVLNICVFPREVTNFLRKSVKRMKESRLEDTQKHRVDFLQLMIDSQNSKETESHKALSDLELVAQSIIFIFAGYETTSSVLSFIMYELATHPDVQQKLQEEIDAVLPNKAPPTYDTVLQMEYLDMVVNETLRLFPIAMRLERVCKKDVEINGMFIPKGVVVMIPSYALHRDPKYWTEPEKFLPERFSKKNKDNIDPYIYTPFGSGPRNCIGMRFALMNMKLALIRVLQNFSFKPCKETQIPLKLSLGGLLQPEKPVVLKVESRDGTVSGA

[1] = target: T2, Corticotropin-releasing factor receptor 2/Corticotropin-releasing factor-binding protein (Homo sapiens, UniProt P24387+Q13324); assay: activators of CRF receptor 2 with binding protein – uHTS hits, confirmation (AID 602473); assay type: functional; details: read-out: EC50_Mean
T2 sequence (Q13324 whole entry): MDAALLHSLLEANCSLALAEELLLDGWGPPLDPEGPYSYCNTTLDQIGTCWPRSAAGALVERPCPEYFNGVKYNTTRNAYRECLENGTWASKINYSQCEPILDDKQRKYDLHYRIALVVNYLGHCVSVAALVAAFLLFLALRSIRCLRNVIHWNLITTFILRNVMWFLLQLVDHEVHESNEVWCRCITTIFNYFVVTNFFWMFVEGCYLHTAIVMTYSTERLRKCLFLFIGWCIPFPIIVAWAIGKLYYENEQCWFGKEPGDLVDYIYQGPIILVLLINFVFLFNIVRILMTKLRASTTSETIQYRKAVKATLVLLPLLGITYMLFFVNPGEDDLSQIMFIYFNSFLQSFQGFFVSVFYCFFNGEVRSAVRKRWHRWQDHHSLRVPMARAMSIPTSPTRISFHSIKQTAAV
T2 sequence (P24387 whole entry): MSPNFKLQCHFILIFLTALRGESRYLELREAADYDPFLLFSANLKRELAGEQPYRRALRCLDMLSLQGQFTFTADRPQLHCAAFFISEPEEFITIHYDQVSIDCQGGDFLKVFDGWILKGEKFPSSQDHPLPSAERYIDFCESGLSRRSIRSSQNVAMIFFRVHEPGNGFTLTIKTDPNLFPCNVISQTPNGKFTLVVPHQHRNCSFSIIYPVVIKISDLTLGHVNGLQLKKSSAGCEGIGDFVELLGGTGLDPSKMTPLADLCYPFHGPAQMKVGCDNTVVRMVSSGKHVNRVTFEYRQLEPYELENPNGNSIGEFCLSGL

[2] = test system: Streptococcus sp. 'group A'; assay: Streptococcus pyogenes SK(-)GAS viability under kanamycin – luminescence, BacTiterGlo, confirmation, counter-screen for streptokinase expression inhibitor project, dose response (AID 1900); assay type: functional, organism-based
Streptococcus = assay: GAS UMAA2166 growth inhibition – luminescence, BacTiterGlo, counter-screen for streptokinase expression inhibitor project, dose response (AID 1915); assay type: functional, organism-based;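 also: potency for reduction of bacterial viability or growth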
Cytochrome P450 2C9 = Cytochrome P450 2C9 (Homo sapiens, UniProt P11712)
Sequence of Cytochrome P450 2C9 (P11712 whole entry): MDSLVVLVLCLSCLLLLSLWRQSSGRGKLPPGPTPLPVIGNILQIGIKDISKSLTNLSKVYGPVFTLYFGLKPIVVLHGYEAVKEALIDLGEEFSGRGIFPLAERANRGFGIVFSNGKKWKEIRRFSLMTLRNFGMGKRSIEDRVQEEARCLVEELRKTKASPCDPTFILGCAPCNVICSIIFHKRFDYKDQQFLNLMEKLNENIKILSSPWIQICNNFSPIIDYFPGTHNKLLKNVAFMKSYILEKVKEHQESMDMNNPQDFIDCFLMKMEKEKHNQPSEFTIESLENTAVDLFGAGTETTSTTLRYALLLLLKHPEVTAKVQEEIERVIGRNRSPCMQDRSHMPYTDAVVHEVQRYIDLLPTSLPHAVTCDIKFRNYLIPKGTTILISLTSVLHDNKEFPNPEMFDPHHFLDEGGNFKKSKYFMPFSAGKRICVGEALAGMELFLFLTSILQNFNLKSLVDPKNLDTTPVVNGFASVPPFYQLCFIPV

[3] = Trypanosoma cruzi growth suppression in host cells – NIH3T3 host cells, beta-gal luminescence, confirmation (AID 2044); assay type: functional, cell-based;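 also: intracellular parasites grown in NIH/3T3 mouse fibroblasts as host cells; luminescent beta-galactosidase reporter signal from transgenic T. cruzi replicating inside host cells; inhibitors lower the luminescence signal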
[4] = NIH3T3 cell viability loss – ATP luminescence, mouse fibroblasts, counter-screen, dose response (AID 2010); assay type: functional, cell-based;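 also: cells exposed to compound for about 90 hours before reading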

O=C(Nc1cccnc1Cl)C1c2ccccc2Oc2ccccc21
AC50 (Cytochrome P450 1A2): 3.16 µM (inconclusive) | AC50 (Cytochrome P450 3A4): 14.1 µM (inconclusive)

CCOC(=O)CC(NC(=O)c1ccc(C)cc1)c1ccc(C)cc1 (stereo unspecified)
AC50 (Cytochrome P450 3A4): 25.1 µM (inconclusive)

CC(C)C[C@H]1CN=C(Nc2ccccc2)N1CCc1cccc(F)c1
EC50 [1]: 6.43 µM (active)

COc1cccc(-c2cncnc2NCCN2CCOCC2)c1
AC50 (Cytochrome P450 1A2): 15.8 µM (inconclusive) | AC50 (Cytochrome P450 3A4): 3.16 µM (inconclusive)

C=CCn1c(NCc2ccccc2)nc2ccccc21
AC50 (Cytochrome P450 3A4): 25.1 µM (inconclusive)

CCN(CC)c1ccc(N2C(=O)/C(=C\c3cccnc3)SC2=S)cc1
AC50 (Cytochrome P450 1A2): 1.41 µM (inconclusive)

Cc1cnc(CNc2ncncc2-c2cccc(NS(C)(=O)=O)c2)cn1
AC50 (Cytochrome P450 1A2): 31.6 µM (inconclusive)

CCC1CCCCN1S(=O)(=O)c1ccc(C(=O)Nc2nnc(C3=COCCO3)o2)cc1 (stereo unspecified)
EC50 [2]: 4.61 µM (active) | EC50 (Streptococcus): 10.7 µM (active)

Cc1ccc(S(=O)(=O)O[C@H]2C[C@@H](C(C)(C)C)CC[C@@H]2c2ccccc2)cc1
AC50 (Cytochrome P450 3A4): 2 µM (inconclusive)

COc1ccc(C(=O)NC2CCN(C(S)=Nc3cccc(C)c3)CC2)cc1
AC50 (Cytochrome P450 2C9): 25.1 µM (inconclusive)

O[C@H](CCCN1CCN(c2ncc(F)cn2)CC1)c1ccc(F)cc1
AC50 (Cytochrome P450 1A2): 31.6 µM (inconclusive) | AC50 (Cytochrome P450 2C9): 12.6 µM (inconclusive)

O=C1S/C(=C/c2ccc(N3CCOCC3)o2)C(=O)N1Cc1ccc(F)cc1
EC50 [1]: 5.79 µM (active) | AC50 (Cytochrome P450 3A4): 7.94 µM (inconclusive)

N[C@H](Cc1ccc(N(CCCl)CCCl)cc1)C(=O)O
AC50 (Cytochrome P450 1A2): 15.8 µM (inconclusive)

COc1ccc(-c2[nH]nc(C)c2-c2ccc(Cl)cc2)c(O)c1
EC50 [2]: 9.86 µM (active) | EC50 (Streptococcus): 11.1 µM (active)

COc1ccc2c3c([nH]c2c1)C(C)=NCC3
AC50 (Cytochrome P450 3A4): 2.51 µM (inconclusive)

Cc1cccc(OCCCCCn2ccnc2)c1
EC50 [3]: 0.443 µM (active) | EC50 [4]: > 30 µM (not active)

Cc1ccc(/C=N\NC(=O)c2ccc(Cn3cc(Br)c([N+](=O)[O-])n3)o2)o1
EC50 [3]: 0.878 µM (active) | EC50 [4]: > 60 µM (not active)

N#Cc1cc(C(=O)c2ccccc2O)cn(-c2ccc(Cl)cc2)c1=O
EC50 [1]: > 53 µM (inactive)

Cc1ccccc1-c1nc(NC2CCNCC2)c2ccccc2n1
AC50 (Cytochrome P450 1A2): 20 µM (inconclusive)

CCN1CCc2c(sc(NC(=S)NC(=O)c3ccccc3)c2C#N)C1
AC50 (Cytochrome P450 1A2): 14.1 µM (inconclusive) | AC50 (Cytochrome P450 3A4): 20 µM (inconclusive)

COc1ccccc1-c1cncnc1N1CCN(C)CC1
AC50 (Cytochrome P450 1A2): 12.6 µM (inconclusive)

O=c1c(-c2ccccc2)nc2cnc(Oc3ccccc3)nc2n1Cc1cccs1
AC50 (Cytochrome P450 1A2): 2.51 µM (inconclusive) | AC50 (Cytochrome P450 2C9): 3.16 µM (inconclusive)

CC(C)CN1CCC2(CC1)CCN(C(=O)c1cc(C(F)(F)F)cc(C(F)(F)F)c1)CC2
AC50 (Cytochrome P450 2C9): 12.6 µM (inconclusive)

CC1(C)CSC(NCc2ccccc2)=N1
EC50 [1]: 2.84 µM (active)

COc1ccc(C(=O)c2ccc(N3CCN(C(=O)c4ccc(F)cc4)CC3)c(F)c2)cc1Br
EC50 [3]: 2.37 µM (active) | EC50 [4]: 8.95 µM (active)

N#Cc1ccc(CN2CCCC3(CCN(C(=O)Oc4ccccc4)CC3)C2)cc1
AC50 (Cytochrome P450 3A4): 15.8 µM (inconclusive) | AC50 (Cytochrome P450 2C9): 39.8 µM (inconclusive)

C=CCSc1nnc(NC(=O)COc2ccc3ccccc3c2)s1
AC50 (Cytochrome P450 2C9): 8.91 µM (inconclusive)

CC(C)N1CCc2c(sc(NC(=O)CCc3ccccc3)c2C(N)=O)C1
EC50 [1]: > 53 µM (inactive)

CC1CC(C)CN(CCCNC(=O)C2CCCN(c3nnc(N4CCCC4=O)s3)C2)C1 (stereo unspecified)
AC50 (Cytochrome P450 3A4): 28.2 µM (inconclusive)

From ChEMBL document CHEMBL1201862, “PubChem BioAssay data set” (2004)
